Data as given in the supplement of paper PMC8149375.

Columns and labels:
Conditions in all cases: treatment: drug + dasatinib (fixed dose, not stated); 5 days
SN12C [1] = assay: minimum viability across doses, drug + dasatinib, relative to DMSO (fraction); higher = less growth inhibition
Description: (§1)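 Primary HTS combination arm: 8 RCC cell lines treated with 8 doses (up to 10 uM) of each library drug plus a fixed dose of dasatinib (dose not stated) for 5 days; viability read by CellTiter-Glo and normalised to DMSO. GI50 was fitted with XLfit, AUC is the area under the dose-response curve, and minimum viability is the lowest fraction of DMSO viability across doses.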

ACHN [2] = assay: as above
Description: as §1

CAKI-1 [3] = assay: as above
Description: as §1

TK-10 [4] = assay: as above
Description: as §1

A498 [5] = assay: as above
Description: as §1

769-P [6] = assay: as above
Description: as §1

UO-31 [7] = assay: as above
Description: as §1

786-O [8] = assay: as above
Description: as §1

SN12C [9] = assay: GI50 of drug in presence of dasatinib; higher = less potent
Description: as §1

ACHN [10] = assay: as above
Description: as §1

CAKI-1 [11] = assay: as above
Description: as §1

TK-10 [12] = assay: as above
Description: as §1

A498 [13] = assay: as above
Description: as §1

769-P [14] = assay: as above
Description: as §1

UO-31 [15] = assay: as above
Description: as §1

786-O [16] = assay: as above
Description: as §1

SN12C [17] = assay: AUC of dose-response viability curve, drug + dasatinib, normalised to DMSO (arbitrary (AUC of normalised viability)); higher = less growth inhibition
Description: as §1

ACHN [18] = assay: as above
Description: as §1

CAKI-1 [19] = assay: as above
Description: as §1

TK-10 [20] = assay: as above
Description: as §1

A498 [21] = assay: as above
Description: as §1

769-P [22] = assay: as above
Description: as §1

UO-31 [23] = assay: as above
Description: as §1

786-O [24] = assay: as above
Description: as §1

Row | SMILES | minimum viability across doses (SN12C [1]) | minimum viability across doses (ACHN [2]) | minimum viability across doses (CAKI-1 [3]) | minimum viability across doses (TK-10 [4]) | minimum viability across doses (A498 [5]) | minimum viability across doses (769-P [6]) | minimum viability across doses (UO-31 [7]) | minimum viability across doses (786-O [8]) | GI50 of drug (SN12C [9]) [µM] | GI50 of drug (ACHN [10]) [µM] | GI50 of drug (CAKI-1 [11]) [µM] | GI50 of drug (TK-10 [12]) [µM] | GI50 of drug (A498 [13]) [µM] | GI50 of drug (769-P [14]) [µM] | GI50 of drug (UO-31 [15]) [µM] | GI50 of drug (786-O [16]) [µM] | AUC of dose-response viability curve (SN12C [17]) | AUC of dose-response viability curve (ACHN [18]) | AUC of dose-response viability curve (CAKI-1 [19]) | AUC of dose-response viability curve (TK-10 [20]) | AUC of dose-response viability curve (A498 [21]) | AUC of dose-response viability curve (769-P [22]) | AUC of dose-response viability curve (UO-31 [23]) | AUC of dose-response viability curve (786-O [24])
1 | Cc1cc(C)c(/C=C2\C(=O)Nc3ccccc32)[nH]1 [Semaxanib (SU5416)] + Cc1nc(Nc2ncc(C(=O)Nc3c(C)cccc3Cl)s2)cc(N2CCN(CCO)CC2)n1 [dasatinib] | 0.666 | 0.472 | 0.584 | 0.657 | 1.01 | 0.658 | 1.2 | 0.606 | > 10 | > 10 | > 10 | > 10 | > 10 | > 10 | > 10 | > 10 | 2.46 | 1.99 | 2.21 | 2.54 | 3.96 | 2.48 | 4.67 | 2.4
2 | CNC(=O)c1cc(Oc2ccc(NC(=O)Nc3ccc(Cl)c(C(F)(F)F)c3)cc2)ccn1.Cc1ccc(S(=O)(=O)O)cc1 [Sorafenib (Nexavar)] + Cc1nc(Nc2ncc(C(=O)Nc3c(C)cccc3Cl)s2)cc(N2CCN(CCO)CC2)n1 [dasatinib] | 0.265 | 0.0615 | 0.118 | 0.471 | 0.245 | 0.249 | 0.138 | 0.174 | 5.96 | 3.17 | 4.81 | 9.08 | 7.05 | 3.77 | 1.53 | 2.2 | 2.52 | 2.33 | 2.42 | 2.72 | 2.94 | 2.31 | 2.41 | 2.32
3 | CN1CCN(c2nc(C3=C(c4c[nH]c5ccccc45)C(=O)NC3=O)c3ccccc3n2)CC1 [Sotrastaurin (AEB071)] + Cc1nc(Nc2ncc(C(=O)Nc3c(C)cccc3Cl)s2)cc(N2CCN(CCO)CC2)n1 [dasatinib] | 0.661 | 0.536 | 0.555 | 0.663 | 0.904 | 0.673 | 1.16 | 0.674 | > 10 | > 10 | > 10 | > 10 | > 10 | > 10 | > 10 | > 10 | 2.45 | 2.04 | 2.44 | 2.84 | 3.6 | 2.3 | 4.79 | 3.14
4 | CN[C@@H]1C[C@H]2O[C@@](C)([C@@H]1OC)n1c3ccccc3c3c4c(c5c6ccccc6n2c5c31)C(=O)NC4 [Staurosporine] + Cc1nc(Nc2ncc(C(=O)Nc3c(C)cccc3Cl)s2)cc(N2CCN(CCO)CC2)n1 [dasatinib] | 0.00331 | 0.00268 | 0.00221 | 0.0201 | 0.0115 | 0.0048 | 0.0095 | 0.00375 | 0.0104 | 0.0036 | < 0.003 | < 0.003 | 0.0323 | < 0.003 | < 0.003 | < 0.003 | 0.755 | 0.372 | 0.0603 | 0.303 | 1.07 | 0.201 | 0.0461 | 0.109
5 | CCN(CC)CCNC(=O)c1c(C)[nH]c(/C=C2\C(=O)Nc3ccc(F)cc32)c1C.O=C(O)C[C@H](O)C(=O)O [Sunitinib Malate (Sutent)] + Cc1nc(Nc2ncc(C(=O)Nc3c(C)cccc3Cl)s2)cc(N2CCN(CCO)CC2)n1 [dasatinib] | 0.0218 | 0.0769 | 0.00649 | 0.221 | 0.167 | 0.0812 | 0.0138 | 0.0195 | 1.53 | 0.281 | 0.496 | 2.86 | 2.02 | 3.14 | 1.02 | 2.52 | 1.88 | 1.58 | 1.81 | 2.52 | 2.52 | 2.26 | 2.59 | 2.49
6 | CCS(=O)(=O)c1cccc(-c2cc(C(=O)NC3CCN(C)CC3)c(C)c3[nH]c4ncc(C)cc4c23)c1 [TAK-901] + Cc1nc(Nc2ncc(C(=O)Nc3c(C)cccc3Cl)s2)cc(N2CCN(CCO)CC2)n1 [dasatinib] | 0.00509 | 0.0237 | 0.0186 | 0.0604 | 0.013 | 0.344 | 0.287 | 0.00567 | 0.347 | 0.235 | 0.318 | 0.607 | 0.588 | 4.01 | 8.85 | 0.171 | 1.52 | 1.5 | 1.62 | 1.93 | 2.63 | 2.27 | 4.3 | 1.55
7 | Nc1nc(N)c2nc(-c3cccc(O)c3)c(-c3cccc(O)c3)nc2n1 [TG100-115] + Cc1nc(Nc2ncc(C(=O)Nc3c(C)cccc3Cl)s2)cc(N2CCN(CCO)CC2)n1 [dasatinib] | 0.637 | 0.368 | 0.308 | 0.739 | 0.882 | 0.463 | 1.03 | 0.681 | > 10 | 2.73 | 3.15 | > 10 | > 10 | 6.88 | > 10 | > 10 | 2.52 | 2.04 | 2.12 | 2.71 | 3.23 | 2.32 | 3.95 | 2.76
8 | NC(=O)Nc1sc(-c2ccc(F)cc2)cc1C(N)=O [TPCA-1] + Cc1nc(Nc2ncc(C(=O)Nc3c(C)cccc3Cl)s2)cc(N2CCN(CCO)CC2)n1 [dasatinib] | 0.405 | 0.184 | 0.076 | 0.176 | 0.711 | 0.232 | 0.212 | 0.258 | > 10 | 0.346 | 0.458 | 0.848 | > 10 | 2.18 | 3.72 | 2.54 | 2.35 | 1.7 | 1.81 | 1.94 | 3.33 | 2.22 | 3.28 | 2.09
9 | Cc1[nH]c(/C=C2\C(=O)Nc3ccccc32)c(C)c1CCC(=O)O [TSU-68] + Cc1nc(Nc2ncc(C(=O)Nc3c(C)cccc3Cl)s2)cc(N2CCN(CCO)CC2)n1 [dasatinib] | 0.609 | 0.512 | 0.595 | 0.74 | 0.699 | 0.66 | 1.07 | 0.61 | > 10 | > 10 | > 10 | > 10 | > 10 | > 10 | > 10 | > 10 | 2.32 | 1.94 | 2.29 | 2.77 | 3.61 | 2.42 | 1.95 | 2.39
10 | CC(C)c1ccccc1Cc1cc(C(=O)Nc2ccc(S(=O)(=O)c3ccccc3C(C)(C)C)cc2)c(O)c(O)c1O [TW-37] + Cc1nc(Nc2ncc(C(=O)Nc3c(C)cccc3Cl)s2)cc(N2CCN(CCO)CC2)n1 [dasatinib] | 0.519 | 0.0767 | 0.0425 | 0.325 | 0.773 | 0.0407 | 0.416 | 0.124 | > 10 | 0.344 | 0.506 | 3.06 | > 10 | 1.57 | 9.77 | 1.21 | 2.6 | 1.58 | 1.77 | 2.18 | 3.28 | 2.19 | 4.4 | 2.07
11 | Nc1cccc(-c2cc3c(Oc4cccc(O)c4)ncnc3[nH]2)c1 [TWS119] + Cc1nc(Nc2ncc(C(=O)Nc3c(C)cccc3Cl)s2)cc(N2CCN(CCO)CC2)n1 [dasatinib] | 0.25 | 0.126 | 0.07 | 0.0898 | 0.653 | 0.0643 | 0.0374 | 0.288 | 3.6 | 0.287 | 1.74 | 1.48 | > 10 | 0.798 | 3.66 | 3.57 | 2.33 | 1.62 | 2.11 | 2.34 | 3.56 | 1.93 | 3.25 | 2.39
12 | COc1cc2c(N3CCN(C(=O)Nc4ccc(OC(C)C)cc4)CC3)ncnc2cc1OCCCN1CCCCC1 [Tandutinib (MLN518)] + Cc1nc(Nc2ncc(C(=O)Nc3c(C)cccc3Cl)s2)cc(N2CCN(CCO)CC2)n1 [dasatinib] | 0.644 | 0.387 | 0.384 | 0.647 | 0.705 | 0.555 | 0.527 | 0.523 | > 10 | 3.27 | 4.78 | > 10 | > 10 | > 10 | > 10 | > 10 | 2.45 | 2.15 | 2.35 | 2.83 | 2.96 | 2.45 | 3.35 | 2.67
13 | CNC(=O)c1cc(COc2nnc(Nc3ccc(Cl)cc3)c3ccoc23)ccn1 [Telatinib (BAY 57-9352)] + Cc1nc(Nc2ncc(C(=O)Nc3c(C)cccc3Cl)s2)cc(N2CCN(CCO)CC2)n1 [dasatinib] | 0.673 | 0.474 | 0.188 | 0.334 | 0.784 | 0.355 | 0.989 | 0.0325 | > 10 | 7.5 | 3.47 | 4.84 | > 10 | 5.53 | > 10 | 4 | 2.51 | 2.22 | 2.19 | 2.45 | 3.74 | 2.25 | 4 | 2.23
14 | CC(=O)Nc1ccc(NC(=S)NC(=O)c2ccc(C(C)(C)C)cc2)cc1 [Tenovin-1] + Cc1nc(Nc2ncc(C(=O)Nc3c(C)cccc3Cl)s2)cc(N2CCN(CCO)CC2)n1 [dasatinib] | 0.656 | 0.385 | 0.498 | 0.342 | 0.0745 | 0.125 | 0.0071 | 0.00416 | > 10 | 1.2 | > 10 | 2.84 | 0.854 | 0.554 | 0.825 | 0.264 | 2.47 | 1.95 | 2.19 | 2.2 | 2.71 | 1.91 | 3 | 1.53
